Where “and” joins values, the source holds several entries; their conditions need not be identical. Identical values can stand only once.
Experiments:
[1] = system: Nur77 interaction with Bcl-2; assay: Cell-based co-immunoprecipitation of Nur77 and Bcl-2
Procedure: Western blotting and co-immunopreciptations (co-IP) were performed. Briefly, cells transfected with or without expression vectors for Nur77 and Bcl-2 were treated with test compounds for 2 hours. The effect of compounds on the interaction of endogenous or transfected Nur77 and Bcl-2 was analyzed by co-immunoprecipitation using appropriate antibodies. Proteins immunoprecipitated from cells by an appropriate anti-Nur77 or anti-Bcl-2 antibody were analyzed by Western blotting.

[2] = system: mTOR markers p-S6 and p-4EBP1; assay: mTOR inhibition: expression of mTOR markers; format: cell-based; settings: MDA-MB-231 cells, 6 hours
MDA-MB-231 cells [3] = assay: Flow cytometry-based Annexin V/PI apoptosis assay, MDA-MB-231; format: cell-based; settings: 1 μM, 6 hours
pBind-RXRa-LBD and Nur77 = assay: Mammalian one hybrid assay, Gal4-RXRa-LBD with Nur77; format: cell-based; settings: cotransfection of pBind-RXRa-LBD and Nur77, Dual-Luciferase (FIG. 10)
Procedure: HEK293T cells were co-transfected with pG5 Luciferase reporter together with the plasmid encoding RXRa-LBD fused with the Gal4 DNA-binding domain and other expression plasmids. After transfection, cells were treated with DMSO or a test compound, and assayed by using the Dual-Luciferase Reporter Assay System (Promega). Transfection efficiency was normalized to Renilla luciferase activity.
To exclude the possibility that Compound 1 acted on RXRa, Glu453 and Glu456 in the RXRa activation function 2 (AF2) region were substituted with Ala and the resulting mutant, RXRa-LBD/E453,6A, was used.

HCT116 cancer cells = assay: Apoptosis assay, Annexin V-FITC/propidium iodide flow cytometry; format: cell-based; settings: Homo sapiens, HCT-116, 6 hours, Annexin V-FITC/PI flow cytometry (Table 4)
Procedure: HCT116 cancer cells plated at a density of 1×10^6 per well on six-well plates were treated with different concentration of test compounds for 6 hours, and then the suspension and the adherent cells were collected, stained with Annexin V-FITC for 15 minutes and with propodium iodide for 5 minutes, and analyzed immediately by cytoFLEX Flow Cytometry System (Beckman-Coulter, Miami, Fla., USA) using FITC and PC5.5 (Table 4).

Nur77 = target: T1, Nur77 (Homo sapiens, UniProt P22736); assay: Immunostaining of Nur77 localization, HCT116; format: cell-based; settings: HCT116 cells, 0.5 μM, 2 hours
T1 construct: expressed in transfected cells
Procedure: (§1) Cells were fixed in 3.7% paraformaldehyde. For mitochondrial staining, cells were incubated with anti-Hsp60 goat immunoglobulin G (IgG) (Santa Cruz Biotechnology, Santa Cruz, Calif.), followed by anti-goat IgG conjugated with Cy3. The nuclei were visualized by DAPI staining. Fluorescent images were collected and analyzed by using a fluorescence microscopy or MRC-1024 MP laser-scanning confocal microscope (Bio-Rad, Hercules, Calif.).
(§2) To confirm the effect of Compound 1 on Nur77 cytoplasmic localization, HEK293T cells were transfected with GFP-Nur77 and subsequently treated with 0.5 μM Compound 1.

HCT116 cells = assay: PARP cleavage assay (Western blotting), HCT116; format: cell-based; settings: 6 hours
Source text: (§3) Compound 1a had no effect under the same conditions (FIG. 1A). […] Compound 1a, 28a, 47a, 48a, 73a, 39a, 70a, 103a, 89a and 88a had no effect under the same conditions (FIG. 3B-C).

GFP-Nur77 = GFP-Nur77 (Homo sapiens, UniProt P22736); assay: GFP-Nur77 localization in transfected HEK293T cells; format: cell-based; settings: HEK293T cells transfected with GFP-Nur77, 0.5 μM
Procedure: as §1, §2

MDA-MB-231 cells [4] = assay: PARP cleavage assay (Western blotting), MDA-MB-231; format: cell-based; settings: 0.5 μM, 6 hours
Source text: as §3

[5] = system: breast cancer cell lines (MDA-MB-231, BT549, HCC 1937, ZR-75-1, T47D, MCF-7); assay: Cell viability (MTT) in various breast cancer cell lines; format: cell-based; settings: 24 hours, FIG. 1E; regardless of hormone dependency
Procedure: Cell viability was analyzed by using a colorimetric 3-(4,5-dimethylthiazol-[…]2-yl)-2,5-diphenyletetrazolium Bromide (MTT) assay that determines mitochondrial dehydrogenase activities in the living cells with a colorimetric method. Cells treated with test compounds were incubated with MTT and their effect on the viability of the cells was assayed by the ability of treated cells to reduce the yellow tetrazolium dye MTT to its insoluble formazan, which has a purple color.
Compound 1 was effective in various breast cancer cell lines analyzed regardless of its hormone dependency, including MDA-MB-231 cells, BT549 cells, HCC 1937 cells, ZR-75-1 cells, T47D cells, and MCF-7 cells (FIG. 1E).

Bcl-2−/−HeLa cells = assay: Annexin V/PI staining, Bcl-2 knockout HeLa; format: cell-based
Procedure: Knocking out Nur77 and Bcl-2 from HeLa cells employed the CRISPR/Cas9 system. gRNA targeting sequence of Nur77 (5′-[…]-3′) and Bcl-2 (5′-[…]-3′) was cloned into gRNA cloning vector Px330 (Addgene, 71707) and confirmed by sequencing. To screen for cells lacking Nur77 or Bcl-2, HeLa cells were transfected with control vector and gRNA expression vectors, followed by G418 selection (0.5mg/m1). Single colonies were subjected to Western blotting using anti-Nur77 and anti-Bcl-2 antibody to select knockout cells.
The apoptotic effect of Compound lwas also evaluated in Bcl-2 genome knockout HeLa cells generated by CRISPR/Cas9 technology (Example A-5).

parental HeLa cells = assay: Annexin V/PI staining, parental HeLa; format: cell-based; settings: methanesulfonate
MDA-MB-231 cells [6] = assay: Caspase 3 cleavage assay (Western blotting); format: cell-based; settings: 6 hours, Western blotting (FIG. 2)
[7] = target: T2, Nur77-LBD interaction with GST-Bcl-2 (Homo sapiens, UniProt P22736); assay: GST-pull down of Nur77-LBD by GST-Bcl-2; format: binding; settings: in vitro, GST-Bcl-2, FIG. 11
T2 construct: incubated with purified His-Nur77-LBD (0.2 mg) in the presence of Compound 1; made in house
Procedure: GST or GST-Bcl-2 fusion protein (0.5 mg) was immobilized on glutathione-Sepharose beads and incubated with purified His-Nur77-LBD (0.2 mg) in the presence of Compound 1 for 1 hour at room temperature to promote GST-Bcl-2 interaction with His-Nur77-LBD. Bound Nur77-LBD was analyzed by Western blotting.

T2 sequence (P22736 360-595 limits assumed): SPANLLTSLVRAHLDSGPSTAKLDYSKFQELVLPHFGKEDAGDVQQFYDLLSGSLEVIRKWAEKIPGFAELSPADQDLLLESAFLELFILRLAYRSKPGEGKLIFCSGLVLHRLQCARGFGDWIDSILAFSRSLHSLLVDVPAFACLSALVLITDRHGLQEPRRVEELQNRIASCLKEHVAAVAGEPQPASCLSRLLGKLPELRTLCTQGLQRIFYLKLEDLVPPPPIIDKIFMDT
T2 sequence (P10415 whole entry partner, the tested form may be a part): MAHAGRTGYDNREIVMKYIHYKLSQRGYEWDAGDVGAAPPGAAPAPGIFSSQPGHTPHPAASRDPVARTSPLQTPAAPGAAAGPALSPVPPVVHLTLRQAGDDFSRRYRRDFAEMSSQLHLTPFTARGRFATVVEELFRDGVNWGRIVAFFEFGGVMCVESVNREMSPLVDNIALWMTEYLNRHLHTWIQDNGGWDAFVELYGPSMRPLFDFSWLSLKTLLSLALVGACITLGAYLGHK
T1 sequence (P22736 whole entry): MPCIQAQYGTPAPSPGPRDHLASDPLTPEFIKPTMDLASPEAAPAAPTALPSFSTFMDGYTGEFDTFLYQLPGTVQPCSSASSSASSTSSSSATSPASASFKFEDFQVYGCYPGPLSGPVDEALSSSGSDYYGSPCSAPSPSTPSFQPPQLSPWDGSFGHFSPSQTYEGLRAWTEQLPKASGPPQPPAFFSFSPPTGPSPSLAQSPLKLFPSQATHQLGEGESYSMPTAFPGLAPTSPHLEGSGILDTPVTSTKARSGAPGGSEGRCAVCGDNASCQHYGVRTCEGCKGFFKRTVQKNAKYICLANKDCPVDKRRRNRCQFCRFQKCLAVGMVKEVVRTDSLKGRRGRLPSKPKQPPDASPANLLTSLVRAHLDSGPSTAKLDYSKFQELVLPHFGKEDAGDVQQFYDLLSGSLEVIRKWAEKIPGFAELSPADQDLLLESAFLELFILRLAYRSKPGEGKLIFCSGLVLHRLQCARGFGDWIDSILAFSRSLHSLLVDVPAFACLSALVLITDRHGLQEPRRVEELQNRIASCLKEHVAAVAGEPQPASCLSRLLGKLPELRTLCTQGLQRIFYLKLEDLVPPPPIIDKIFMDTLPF
Sequence of GFP-Nur77 (P22736 whole entry): as above

Structure (SMILES): FC(F)(F)c1ccc([C+](c2c[nH]c3ccccc23)c2c[nH]c3ccccc23)cc1 [Compound 1, Bis(1H-indol-3-yl)(4-(trifluoromethyl)phenyl)methylium methanesulfonate]
- Nur77 interaction with Bcl-2 (Co-IP) ([1]; Nur77 transfected in HeLa cells): interacted with Bcl-2
- endogenous Nur77 immunoprecipitated with endogenous Bcl-2 ([1]; anti-Bcl-2 antibody): specifically immunoprecipitated together with endogenous Bcl-2
- Nur77 or Nur77-LBD interaction with Bcl-2 (Co-IP) ([1]; transfected in HEK293T cells): interacted with Bcl-2
- expression levels of mTOR marker p-4EBP1 ([2]; 0.75 μM): reduced the expression levels
- expression levels of mTOR markers p-S6 and p-4EBP1 ([2]; 1 μM): reduced the expression levels
- apoptotic cells (Annexin V/PI) (MDA-MB-231 cells [3]): about 31.63%
- reporter transcriptional activity (pBind-RXRa-LBD and Nur77): dose dependently induced the reporter activity
- IC50 (HCT116 cancer cells): < 500 nM
- Nur77 subcellular localization (immunostaining) (Nur77): predominantly cytoplasmic
- PARP cleavage (HCT116 cells; 0.5 μM, Western blotting): effectively induced PARP cleavage
- concentration inducing PARP cleavage (dose dependent study) (HCT116 cells): submicromolar concentrations
- GFP-Nur77 subcellular localization (GFP-Nur77): diffusely distributed in both the cytoplasm and nucleus
- PARP cleavage (MDA-MB-231 cells [4]): effectively induced PARP cleavage
- cell viability (MTT) [5]: effective
- apoptotic effect (Annexin V/PI staining) (Bcl-2−/−HeLa cells): 7.95%
- apoptotic effect (Annexin V/PI staining) (parental HeLa cells): 35.55% and 24.59%
- caspase 3 cleavage (MDA-MB-231 cells [6]): dose dependent induction of caspase 3 cleavage
- Nur77-LBD pulled down (GST-pull down) [7]: concentration dependent manner
